Legend:
CSK = target: T1, CSK (Homo sapiens, UniProt P41240); experiment: Human CSK enzymatic assay (AlphaScreen, Poly (Glu4-Tyr) substrate); format: biochemical; conditions: 100 uM ATP; read-out: CSK IC50 (μM) COFACTOR: 100 uM ATP
T1 construct: purchased Thermo Fisher
Description: This assay measures the ability of CSK to phosphorylate a biotinylated peptide containing multiple tyrosine residues in vitro. The CSK enzyme was purchased from Thermo Fisher. The biotinylated Poly (Glu4-Tyr) peptide substrate was purchased from Sigma-Aldrich. The CSK enzyme assay was performed using 0.75 ng CSK enzyme and 30 nM Poly (Glu4-Tyr) substrate in the presence of 25 mM Hepes pH 7.5, 5 mM Mg Acetate, 0.1% NP-40, 1 mM DTT, 0.01% BSA, and 100 μM ATP. A 19 μL volume of the above reaction mixture was added to wells of 384-well AlphaPlate (PerkinElmer GA, USA) containing 1 μL of various concentrations of test compound or DMSO vehicle and incubated for 60 minutes at room temperature. 16 wells containing all the components of reaction mixture and 5% DMSO serve as high control. 16 wells containing all the components except ATP of reaction mixture and 5% DMSO served as low control. The enzymatic reaction was stopped by the addition of 5 μL stop/detection mixture containing 25 mM Hepes pH 7.5 100 mM EDTA, and 5 μg/mL streptavidin-coated AlphaScreen donor beads (PerkinElmer GA, USA) and incubated for 20 minutes. A 5 μL mixture containing 25 mM Hepes pH 7.5, 100 mM EDTA, and 5 μg/mL anti-phosphotyrosine antibody PY20-coated AlphaScreen acceptor beads (PerkinElmer GA, USA) was added and the plate was incubated for 1 hour at room temperature. The streptavidin donor beads bind to the biotin moiety on the biotinylated Poly (Glu4-Tyr) substrate and the PY20 antibody-coated acceptor beads bind to tyrosine residues on the substrate that have been directly phosphorylated by CSK. Upon excitation of these beads with laser light at 680 nm, singlet oxygen was produced. This singlet oxygen was rapidly quenched, unless the AlphaScreen PY20 acceptor beads are in close proximity, in which case a proximity signal can be measured at 580 nm. In the presence of catalytic activity, there was a very strong proximity signal. Selective CSK inhibitors affect a decrease in this proximity signal through a decrease in phosphorylation of the Poly (Glu4-Tyr) substrate. The percentage of inhibition at individual concentrations relative to high and low controls was calculated. The data were analyzed by using nonlinear regression to generate IC50 values. Human LCK enzymatic assay

LCK = target: T2, LCK (Homo sapiens, UniProt P06239); experiment: Human LCK enzymatic assay (AlphaScreen, Poly (Glu4-Tyr) substrate); format: biochemical; conditions: 100 uM ATP; read-out: LCK IC50 (uM) COFACTOR: 100 uM ATP
T2 construct: purchased ProQinase
T2 sequence (P06239 whole entry): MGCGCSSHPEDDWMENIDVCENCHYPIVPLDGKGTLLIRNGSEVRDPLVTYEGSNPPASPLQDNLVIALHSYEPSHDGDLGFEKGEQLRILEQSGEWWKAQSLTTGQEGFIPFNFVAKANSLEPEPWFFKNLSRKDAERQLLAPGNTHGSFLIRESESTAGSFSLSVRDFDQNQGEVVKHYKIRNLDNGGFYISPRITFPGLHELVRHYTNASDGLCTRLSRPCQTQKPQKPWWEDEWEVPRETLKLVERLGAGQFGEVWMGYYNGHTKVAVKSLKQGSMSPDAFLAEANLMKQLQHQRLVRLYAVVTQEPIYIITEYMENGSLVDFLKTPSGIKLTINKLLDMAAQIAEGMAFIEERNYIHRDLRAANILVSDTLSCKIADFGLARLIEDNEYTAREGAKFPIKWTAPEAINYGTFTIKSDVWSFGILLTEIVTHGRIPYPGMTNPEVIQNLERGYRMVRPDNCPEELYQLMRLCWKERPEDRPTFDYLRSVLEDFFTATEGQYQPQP
Description: This assay measures the ability of LCK to phosphorylate a biotinylated peptide containing multiple tyrosine residues in vitro. The LCK enzyme was purchased from ProQinase. The biotinylated Poly (Glu4-Tyr) peptide substrate was purchased from Sigma-Aldrich. The LCK enzyme assay was performed using 1 ng LCK enzyme and 30 nM Poly (Glu4-Tyr) substrate in the presence of 25 mM Hepes pH 7.5, 10 mM MnCl2, 50 mM NaCl, 0.01% Tween-20, 0.5 mM DTT, 0.01% BSA, and 100 μM ATP. A 19 μL volume of the above reaction mixture was added to wells of 384-well AlphaPlate (PerkinElmer GA, USA) containing 1 μL of various concentrations of test compound or DMSO vehicle and incubated for 40 minutes at 25° C. 16 wells containing all the components of reaction mixture and 5% DMSO served as high control. 16 wells containing all the components except ATP of reaction mixture and 5% DMSO served as low control. The enzymatic reaction was stopped by the addition of 5 μL stop/detection mixture containing 25 mM Hepes pH 7.5 100 mM EDTA, and 10 μg/mL streptavidin-coated AlphaScreen donor beads (PerkinElmer GA, USA) and incubated for 20 minutes. A 5 μL mixture containing 25 mM Hepes pH 7.5, 100 mM EDTA, and 10 μg/mL anti-phosphotyrosine antibody PY20-coated AlphaScreen acceptor beads (PerkinElmer GA, USA) was added and the plate was incubated for 1 hour at room temperature. The streptavidin donor beads bind to the biotin moiety on the biotinylated Poly (Glu4-Tyr) substrate and the PY20 antibody-coated acceptor beads bind to tyrosine residues on the substrate that have been directly phosphorylated by LCK. Upon excitation of these beads with laser light at 680 nm, singlet oxygen was produced. This singlet oxygen was rapidly quenched, unless the AlphaScreen PY20 acceptor beads are in close proximity, in which case a proximity signal can be measured at 580 nm. In the presence of catalytic activity, there was a very strong proximity signal. Selective LCK inhibitors affect a decrease in this proximity signal through a decrease in phosphorylation of the Poly (Glu4-Tyr) substrate. The percentage of inhibition at individual concentrations relative to high and low controls was calculated. The data were analyzed by using nonlinear regression to generate IC50 values.

Jurkat/NFAT-RE cells = experiment: NFAT reporter assay (luciferase) in Jurkat/NFAT-RE cells; format: cell-based; conditions: Homo sapiens, 0.02 μg/mL anti-CD3 antibody OKT3, 3 hours, read-out: Jurkat EC50 (uM) Cell Assay: Reporter Cell Variant: NFAT response element
Excerpt: To assess the ability of CSK inhibitors to activate LCK and stimulate signaling downstream of the T-cell receptor, an NFAT reporter assay was used for monitoring of LCK activation in cells through the activation of LCK-dependent signaling through a reporter assay. The Jurkat T-cell cell line was genetically engineered to express a luciferase reporter that is regulated by the NFAT-response element. (Clipstone, N. A., & Crabtree, G. R., Identification of calcineurin as a key signalling enzyme in T-lymphocyte activation, Nature, 357(6380), 695-697, 1992). Stimulation of the T-cell receptor with anti-CD3 antibody increases the expression of the luciferase reporter. To test the ability of CSK inhibitors to stimulate LCK and downstream T-cell signaling, the cells were stimulated with a suboptimal concentration of anti-CD3 ligand, to measure the ability of CSK inhibitors to increase luciferase expression.
This assay measures the signaling activity downstream of the T-cell receptor, specifically the ability of the NFAT transcription factor to be translocated to the nucleus and induce expression of a firefly luciferase gene. Jurkat/NFAT-RE cells stably expressing the NFAT reporter construct were purchased from BPS Bioscience. The assay was performed by plating 40,000 Jurkat/NFAT-RE cells in a 50 μL volume of serum-free growth media in a 96-well plate. Following an overnight incubation, the cells were treated with CSK inhibitors and 0.02 μg/mL anti-CD3 antibody OKT3 (BD Bioscience) for 3 hours at 37° C. High control wells were stimulated with DMSO and 5 μg/mL OKT3 to maximally stimulate the NFAT reporter, and low control wells were stimulated with DMSO and 0.02 μg/mL OKT3. Following the 3 hour incubation, the cells were assayed for viability using CellTiter-Fluor™ (Promega), and for luciferase expression using ONE-Glo™ (Promega). The ONE-Glo™ signal was normalized to the CellTiter-Fluor™ signal, and the percentage of NFAT activation relative to high and low controls was calculated. The data were analyzed by using nonlinear regression to generate EC50 values. Selective CSK inhibitors affect an increase in luciferase expression in the presence of low level stimulation of the T-cell receptor.

T1 sequence (P41240 whole entry): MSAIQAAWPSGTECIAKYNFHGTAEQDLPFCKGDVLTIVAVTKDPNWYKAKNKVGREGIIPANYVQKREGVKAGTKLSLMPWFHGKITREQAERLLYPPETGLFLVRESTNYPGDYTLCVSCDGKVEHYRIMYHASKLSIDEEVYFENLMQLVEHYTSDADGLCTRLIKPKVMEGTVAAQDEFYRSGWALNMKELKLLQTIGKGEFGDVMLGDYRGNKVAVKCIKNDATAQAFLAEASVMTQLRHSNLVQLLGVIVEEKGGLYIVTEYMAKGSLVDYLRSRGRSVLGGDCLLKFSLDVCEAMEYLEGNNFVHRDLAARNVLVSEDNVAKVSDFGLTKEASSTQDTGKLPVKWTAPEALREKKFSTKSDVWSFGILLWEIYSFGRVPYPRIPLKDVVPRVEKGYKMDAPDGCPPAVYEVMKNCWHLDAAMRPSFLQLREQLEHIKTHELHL

| Compound | IC50 (CSK) | IC50 (LCK) | EC50 (Jurkat/NFAT-RE cells) |
| --- | --- | --- | --- |
| Nc1cc2c(cn1)cc(-c1c(F)ccc(NS(=O)(=O)c3ccc4ncsc4c3F)c1F)c(=O)n2CC1CC1 [P-0001, N-(3-(7-amino-1-(cyclopropylmethyl)-2-oxo-1,2-dihydro-1,6-naphthyridin-3-yl)-2,4-difluorophenyl)-7-fluorobenzo[d]thiazole-6-sulfonamide] | 0.001 to 0.5 µM | 0.001 to 0.5 µM | 0.001 to 0.5 µM |
| Nc1cc2c(cn1)cc(-c1c(F)ccc(NS(=O)(=O)c3cc4scnc4cc3F)c1F)c(=O)n2CC1CC1 [P-0002, N-(3-(7-amino-1-(cyclopropylmethyl)-2-oxo-1,2-dihydro-1,6-naphthyridin-3-yl)-2,4-difluorophenyl)-5-fluorobenzo[d]thiazole-6-sulfonamide] | 0.001 to 0.5 µM | 0.5 to 5 µM | 0.001 to 0.5 µM |
| Nc1cc2c(cn1)cc(-c1c(F)ccc(NS(=O)(=O)c3cc4scnc4cc3F)c1F)c(=O)n2CC(F)F [P-0003, N-(3-(7-amino-1-(2,2-difluoroethyl)-2-oxo-1,2-dihydro-1,6-naphthyridin-3-yl)-2,4-difluorophenyl)-5-fluorobenzo[d]thiazole-6-sulfonamide] | 0.001 to 0.5 µM | 5 to 100 µM | 0.001 to 0.5 µM |
| COCCn1c(=O)c(-c2c(F)ccc(NS(=O)(=O)c3cc4scnc4cc3F)c2F)cc2cnc(N)cc21 [P-0004, N-(3-(7-amino-1-(2-methoxyethyl)-2-oxo-1,2-dihydro-1,6-naphthyridin-3-yl)-2,4-difluorophenyl)-5-fluorobenzo[d]thiazole-6-sulfonamide] | 0.001 to 0.5 µM | 5 to 100 µM | 0.5 to 5 µM |
| CNc1cc2c(cn1)cc(-c1c(F)ccc(NS(=O)(=O)c3cc4scnc4cc3F)c1F)c(=O)n2CC1CC1 [P-0005, N-(3-(1-(cyclopropylmethyl)-7-(methylamino)-2-oxo-1,2-dihydro-1,6-naphthyridin-3-yl)-2,4-difluorophenyl)-5-fluorobenzo[d]thiazole-6-sulfonamide] | 0.001 to 0.5 µM | 5 to 100 µM | 0.001 to 0.5 µM |
| CC1(n2c(=O)c(-c3c(F)ccc(NS(=O)(=O)c4cc5scnc5cc4F)c3F)cc3cnc(N)cc32)CC1 [P-0006, N-(3-(7-amino-1-(1-methylcyclopropyl)-2-oxo-1,2-dihydro-1,6-naphthyridin-3-yl)-2,4-difluorophenyl)-5-fluorobenzo[d]thiazole-6-sulfonamide] | 0.001 to 0.5 µM | 5 to 100 µM | 0.5 to 5 µM |
| Nc1cc2[nH]c(=O)c(-c3c(F)ccc(NS(=O)(=O)c4cc5scnc5cc4F)c3F)cc2cn1 [P-0007, N-(3-(7-amino-2-oxo-1,2-dihydro-1,6-naphthyridin-3-yl)-2,4-difluorophenyl)-5-fluorobenzo[d]thiazole-6-sulfonamide] | 0.001 to 0.5 µM | 5 to 100 µM | 0.5 to 5 µM |
| Nc1cc2c(cn1)cc(-c1c(F)ccc(NS(=O)(=O)c3cc4scnc4cc3F)c1F)c(=O)n2C1CC1 [P-0008, N-(3-(7-amino-1-cyclopropyl-2-oxo-1,2-dihydro-1,6-naphthyridin-3-yl)-2,4-difluorophenyl)-5-fluorobenzo[d]thiazole-6-sulfonamide] | 0.001 to 0.5 µM | 5 to 100 µM | 0.001 to 0.5 µM |
| Nc1cc2c(cn1)cc(-c1c(F)ccc(NS(=O)(=O)c3cc4scnc4cc3F)c1F)c(=O)n2C1CC(F)(F)C1 [P-0009, N-(3-(7-amino-1-(3,3-difluorocyclobutyl)-2-oxo-1,2-dihydro-1,6-naphthyridin-3-yl)-2,4-difluorophenyl)-5-fluorobenzo[d]thiazole-6-sulfonamide] | 0.001 to 0.5 µM | 5 to 100 µM | 0.5 to 5 µM |
| O=c1c(-c2c(F)ccc(NS(=O)(=O)c3cc4scnc4cc3F)c2F)cc2cnc(NCCO)cc2n1CC1CC1 [P-0010, N-(3-(1-(cyclopropylmethyl)-7-((2-hydroxyethyl)amino)-2-oxo-1,2-dihydro-1,6-naphthyridin-3-yl)-2,4-difluorophenyl)-5-fluorobenzo[d]thiazole-6-sulfonamide] | 0.001 to 0.5 µM | 5 to 100 µM | 0.5 to 5 µM |
| COCCNc1cc2c(cn1)cc(-c1c(F)ccc(NS(=O)(=O)c3cc4scnc4cc3F)c1F)c(=O)n2CC1CC1 [P-0011, N-(3-(1-(cyclopropylmethyl)-7-((2-methoxyethyl)amino)-2-oxo-1,2-dihydro-1,6-naphthyridin-3-yl)-2,4-difluorophenyl)-5-fluorobenzo[d]thiazole-6-sulfonamide] | 0.001 to 0.5 µM | 5 to 100 µM | 0.5 to 5 µM |
| Nc1cc2c(cn1)cc(-c1c(F)ccc(NS(=O)(=O)c3ccc4ncsc4c3F)c1F)c(=O)n2C1CC1 [P-0027, N-(3-(7-amino-1-cyclopropyl-2-oxo-1,2-dihydro-1,6-naphthyridin-3-yl)-2,4-difluorophenyl)-7-fluorobenzo[d]thiazole-6-sulfonamide] | 0.001 to 0.5 µM |  | 0.001 to 0.5 µM |
| Cc1c(-c2cccc(NS(=O)(=O)c3cc4scnc4cc3F)c2F)c(=O)n(C2CC2)c2cc(N)ncc12 [P-0028, N-(3-(7-amino-1-cyclopropyl-4-methyl-2-oxo-1,2-dihydro-1,6-naphthyridin-3-yl)-2-fluorophenyl)-5-fluorobenzo[d]thiazole-6-sulfonamide] | 5 to 100 µM | 5 to 100 µM |  |
| Nc1cc2c(cn1)cc(-c1cccc(NS(=O)(=O)c3cc4scnc4cc3F)c1F)c(=O)n2C1CC1 [P-0029, N-(3-(7-amino-1-cyclopropyl-2-oxo-1,2-dihydro-1,6-naphthyridin-3-yl)-2-fluorophenyl)-5-fluorobenzo[d]thiazole-6-sulfonamide] | 0.001 to 0.5 µM | 5 to 100 µM |  |
